# According to patent publication US6329392A, “Substituted piperidines useful for the treatment of allergic diseases” (Aventis Pharmaceuticals, Inc., priority 1998, dated 2001):
# Like-named read-outs stand apart in the source and are kept apart here.
# Legend:
# [1] = target: T1, NK1 receptor (Cavia porcellus, UniProt P30547); experiment: Antagonism of iodinated tachykinin (substance P) binding to NK1 receptors in guinea pig lungs; settings: read-out: NK1 Receptor Binding Affinity, IC50
# T1 construct: as evaluated in guinea pig lungs (Keystone Biologicals, Cleveland, Ohio); tissue Keystone Biologicals, Cleveland, Ohio; host or cells: guinea pig lung membranes
# Method: Antagonism of iodinated tachykinin binding to NK1 receptors by putative antagonists
# One skilled in the art can measure the NK1 receptor affinity of proposed tachykinin antagonists as evaluated in guinea pig lungs (Keystone Biologicals, Cleveland, Ohio). Tissues or cells are homogenized with a Polytron in 15 volumes of 50 mM Tris-HCl buffer (pH 7.4, […]) and centrifuged. The pellet is resuspended in Tris-HCl buffer and centrifuged; the pellet is washed twice by resuspension. The final pellet is resuspended at a concentration of 40 mg/ml incubation buffer and remains at room temperature for at least 15 min prior to use. […] Incubations are performed at room temperature for 90 min; binding is terminated by addition of 50 mM Tris-HCl buffer (pH 7.4, […]) and filtration under vacuum through GF/B filters presoaked with 0.1% polyethyleneimine. Filter bound radioactivity is quantitated in a gamma counter. […] IC50 values (concentration required to inhibit 50% of receptor binding) are generated for each of the test compounds by nonlinear regression using an iterative curve fitting program (GraphPAD Inplot, San Diego, Calif.).
# [2] = target: T2, H1 receptor (Cavia porcellus, UniProt P31389); experiment: Histamine (H1) antagonism in guinea pig ileum; type: cell-based
# T2 construct: A piece of ileum, about 20 cm in length, is removed and cut into 2 cm pieces; from tissue; host or cells: ileum of male Hartley guinea pigs
# Method: Male Hartley guinea pigs, weighing 200-450 grams, are sacrificed by CO2 asphyxiation. A piece of ileum, about 20 cm in length, is removed and cut into 2 cm pieces. Each ileum piece is placed in an organ bath at 37° C. containing Tyrode's solution and is constantly aerated with 95% O2 /5%CO2. Tyrode's solution has the composition: NaCl 136.9 mM, KCl […], CaCl2 1.8 mM, NaH2 PO4 0.42 mM, NaHCO3 11.9 mM, and dextrose 5.55 mM. Contractions are measured with an isometric transducer (Grass FTO3C), and are recorded on a polygraph recorder and/or a computer. The ileum strips are loaded with 1.0 grams of tension and allowed to equilibrate for a minimum of 30 minutes before starting the experiments.
# The potency of the antagonism is determined by the magnitude of the shift and is expressed as a pA2 value which is the negative logarithm of the molar concentration of antagonist which produces a two-fold shift of the dose response curve to the right. The pA2 value is calculated by using Schild analysis. O. Arunlakshana and H. O. Schild, Br. J. Pharmacol Chemother. 14, 48-58 (1958).
# Table 1 presents pA2 values by the method of Example 93 which indicate potency of H1 receptor antagonism and IC50 values by the method of Example 95 which indicates NK1 receptor binding affinity for representative compounds of the present invention.
# [3] = read-out: H1 Receptor Antagonism, pA2, in vitro (converted)
# [4] = guinea pig lungs, 0.1 nM 125I-Bolton Hunter Lys-3 labeled substance P, room temperature 90 min, pH 7.4
# T2 sequence (P31389 whole entry): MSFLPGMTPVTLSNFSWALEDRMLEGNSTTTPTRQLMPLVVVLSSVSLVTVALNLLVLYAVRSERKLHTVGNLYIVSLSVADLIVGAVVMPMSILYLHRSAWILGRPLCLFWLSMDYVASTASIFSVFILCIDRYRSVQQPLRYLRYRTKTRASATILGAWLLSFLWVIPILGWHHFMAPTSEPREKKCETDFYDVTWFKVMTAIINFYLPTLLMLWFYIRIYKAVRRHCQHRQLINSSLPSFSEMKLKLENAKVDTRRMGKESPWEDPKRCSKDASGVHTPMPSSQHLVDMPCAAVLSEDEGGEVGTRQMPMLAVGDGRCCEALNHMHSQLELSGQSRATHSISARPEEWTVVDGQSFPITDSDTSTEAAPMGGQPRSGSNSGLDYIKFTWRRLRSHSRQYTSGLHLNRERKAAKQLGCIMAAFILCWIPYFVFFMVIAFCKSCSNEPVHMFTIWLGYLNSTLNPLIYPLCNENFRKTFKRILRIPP
# T1 sequence (P30547 whole entry): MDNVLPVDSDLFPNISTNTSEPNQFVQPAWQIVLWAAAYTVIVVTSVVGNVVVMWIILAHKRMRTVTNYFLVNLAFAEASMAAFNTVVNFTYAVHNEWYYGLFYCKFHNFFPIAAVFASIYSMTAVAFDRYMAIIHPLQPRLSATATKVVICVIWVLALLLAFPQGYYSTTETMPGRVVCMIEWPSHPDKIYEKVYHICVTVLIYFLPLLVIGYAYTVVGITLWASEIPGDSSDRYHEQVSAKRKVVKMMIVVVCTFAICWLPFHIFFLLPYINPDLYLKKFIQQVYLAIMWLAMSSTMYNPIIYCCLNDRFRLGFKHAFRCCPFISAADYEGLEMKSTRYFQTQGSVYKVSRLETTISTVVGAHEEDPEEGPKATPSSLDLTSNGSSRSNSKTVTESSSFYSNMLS
IC50 [1] [nM],"Kb [2, 3] [nM]","IC50 [1, 4] [nM]",SMILES,Kb [2] [nM]
288,61.7,,"CC(C)Oc1cccc(CC(=O)N2CCC(CCN3CCC(C(=O)c4nc5ccccc5n4Cc4ccc(F)cc4)CC3)(c3ccc4c(c3)OCO4)C2)c1 (centres unmarked) [Example 26, 1-(3-Isopropoxy-phenyl-acetyl)-3-[2-[4-[1-(4-fluoro-benzyl)-1 H-benzoimidazole-2-carbonyl]-piperidin-1-yl]-ethyl]-3-(benzo[1,3]dioxol-5-yl)-pyrrolidine]",
122,724,,"COc1ccc(C2(CCN3CCC(C(O)(c4ccccc4)c4ccccc4)CC3)CCN(C(=O)c3cc(OC)c(OC)c(OC)c3)C2)cc1OC (centres unmarked) [Example 9, 1-(3,4,5-Trimethoxy-benzoyl)-3-[2-[4-(hydroxy-diphenyl-methyl)-piperidin-1-yl]-ethyl]-3-(3,4-dimethoxy-phenyl)-pyrrolidine]",
,33.9,,"COc1cc(C(=O)N2CCC(CCN3CCC(C(=O)c4nc5ccccc5n4Cc4ccc(F)cc4)CC3)(c3ccccc3)C2)cc(OC)c1OC (centres unmarked) [Example 11, 1-(3,4,5-Trimethoxy-benzoyl)-3-[2-[4-[1-(4-fluoro-benzyl)-1 H-benzoimidazole-2-carbonyl]-piperidin-1-yl]-ethyl]-3-phenyl-pyrrolidine]",
,20.4,1240,"CCOc1cc(C(=O)N2CCC(CCN3CCC(C(=O)c4nc5ccccc5n4Cc4ccc(F)cc4)CC3)(c3ccc(OC)c(OC)c3)C2)cc(OCC)c1OCC (centres unmarked) [Example 28, 1-(3,4,5-Triethoxy-benzoyl)-3-[2-[4-[1-(4-fluoro-benzyl)-1 H-benzoimidazole-2-carbonyl]-piperidin-1-yl]-ethyl]-3-(3,4-dimethoxy-phenyl)-pyrrolidine]",
31,105,,"CCOCCn1c(C(=O)C2CCN(CCC3(c4ccc(Cl)c(Cl)c4)CCN(C(=O)c4cc(OC)c(OC)c(OC)c4)C3)CC2)nc2ccccc21 (centres unmarked) [Example 83, 1-(3,4,5-Trimethoxy-benzoyl)-3-[2-[4-[1-(2-ethoxy-ethyl)-1H-benzoimidazole-2-carbonyl]-piperidin-1-yl]-ethyl]-3-(3,4-dichloro-phenyl)-pyrrolidine]",
109,129,,"COc1cc(C(=O)N2CCC(CCN3CCC(C(=O)c4nc5ccccc5n4Cc4ccc(F)cc4)CC3)(c3ccc(C(F)(F)F)cc3)C2)cc(OC)c1OC (centres unmarked) [Example 20, 1-(3,4,5-Trimethoxy-benzoyl)-3-[2-[4-[1-(4-fluoro-benzyl)-1 H-benzoimidazole-2-carbonyl]-piperidin-1-yl]-ethyl]-3-(4-trifluoromethyl-phenyl)-pyrrolidine]",
,31.6,31,"COc1ccc(C2(CCN3CCC(C(=O)c4nc5ccccc5n4Cc4ccc(F)cc4)CC3)CCN(C(=O)c3cc(OC)c(OC)c(OC)c3)C2)cc1OC (centres unmarked) [Example 1, 1-(3,4,5-Trimethoxy-benzoyl)-3-[2-[4-[1-(4-fluoro-benzyl)-1H-benzoimidazole-2-carbonyl]-piperidin-1-yl]-ethyl]-3-(3,4-dimethoxy-phenyl)-pyrrolidine]",
24,41.7,,"CCOCCn1c(C(=O)C2CCN(CCC3(c4ccccc4)CCN(C(=O)c4cc(OC)c(OC)c(OC)c4)C3)CC2)nc2ccccc21 (centres unmarked) [Example 40, 1-(3,4,5-Trimethoxy-benzoyl)-3-[2-[4-[1-(2-ethoxy-ethyl)-1 H-benzoimidazole-2-carbonyl]-piperidin-1-yl]-ethyl]-3-phenyl-pyrrolidine]",
85,141,,"COc1cc(C(=O)N2CCC(CCN3CCC(C(=O)c4nc5ccccc5n4Cc4ccc(F)cc4)CC3)(c3ccc(Cl)c(Cl)c3)C2)cc(OC)c1OC (centres unmarked) [Example 6, 1-(3,4,5-Trimethoxy-benzoyl)-3-[2-[4-[1-(4-fluoro-benzyl)-1 H-benzoimidazole-2-carbonyl]-piperidin-1-yl]-ethyl]-3-(3,4-dichloro-phenyl)-pyrrolidine]",
279,79.4,,"CC(C)Oc1cccc(CC(=O)N2CCCC(CCN3CCC(C(=O)c4nc5ccccc5n4Cc4ccc(F)cc4)CC3)(c3ccc(Cl)c(Cl)c3)C2)c1 (centres unmarked) [Example 63, 1-(3-Isopropoxy-phenyl-acetyl)-3-[2-[4-[1-(4-fluoro-benzyl)-1H-benzoimidazole-2-carbonyl]-piperidin-1-yl]-ethyl]-3-(3,4-dichloro-phenyl)-piperidine]",
38,41.7,,"COc1cc(C(=O)N2CCC(CCN3CCC(C(=O)c4nc5ccccc5n4Cc4ccccn4)CC3)(c3ccc(Cl)c(Cl)c3)C2)cc(OC)c1OC (centres unmarked) [Example 33, 1-(3,4,5-Trimethoxy-benzoyl)-3-[2-[4-[1-(pyrid-2-ylmethyl)-1 H-benzoimidazole-2-carbonyl]-piperidin-1-yl]-ethyl]-3-(3,4-dichloro-phenyl)-pyrrolidine]",
325,141,,"COc1cc(C(=O)N2CCC(CCN3CCC(C(=O)c4nc5ccccc5n4Cc4ccc(F)cc4)CC3)(c3ccc(F)cc3F)C2)cc(OC)c1OC (centres unmarked) [Example 25, 1-(3,4,5-Trimethoxy-benzoyl)-3-[2-[4-[1-(4-fluoro-benzyl)-1 H-benzoimidazole-2-carbonyl]-piperidin-1-yl]-ethyl]-3-(2,4-difluoro-phenyl)-pyrrolidine]",
48,6760,,COc1ccc(C2(CCN3CCC(C(=O)c4nc5ccccc5n4Cc4ccc(C(=O)O)cc4)CC3)CCN(C(=O)c3cc(OC)c(OC)c(OC)c3)C2)cc1OC (centres unmarked) [Example 43],
,,,"COc1ccc(C2(CCN3CCC(C(=O)c4nc5ccccc5n4Cc4ccc(F)cc4)CC3)CCN(C(=O)c3ccccc3)C2)cc1OC (centres unmarked) [Example 2, 1-Benzoyl-3-[2-[4-[1-(4-fluoro-benzyl)-1 H-benzoimidazole-2-carbonyl]-piperidin-1-yl]-ethyl]-3-(3,4-dimethoxy-phenyl)-pyrrolidine]",26.9
9,35.5,,"COc1cc(C(=O)N2CCC(CCN3CCC(C(=O)c4nc5ccccc5n4CCOCc4ccco4)CC3)(c3ccccc3)C2)cc(OC)c1OC (centres unmarked) [Example 45, 1-(3,4,5-Trimethoxy-benzoyl)-3-[2-[4-[1-(2-fur-2-ylmethoxy-ethyl)-1 H-benzoimidazole-2-carbonyl]-piperidin-1-yl]-ethyl]-3-phenyl-pyrrolidine]",

SMILES,IC50 [1] [nM],"Kb [2, 3] [nM]","IC50 [1, 4] [nM]",Kb [2] [nM]
"COc1ccc(CC2(CCN3CCC(O)(c4nc5ccccc5n4Cc4ccc(F)cc4)CC3)CCN(Cc3cc(OC)c(OC)c(OC)c3)C2=O)cc1OC (centres unmarked) [Example 55, 1-(3,4,5-Trimethoxy-benzyl)-3-[2-[4-[1-(4-fluoro-benzyl)-1H-benzoimidazol-2-yl]-4-hydroxy-piperidin-1-yl]-ethyl]-3-(3,4-dimethoxy-phenylmethyl)-2-oxo-pyrrolidine]",385,912,,
"COc1ccc(C2(CCN3CCC(c4nc5ccccc5s4)CC3)CCN(C(=O)c3ccccc3)C2)cc1OC (centres unmarked) [Example 4, 1-Benzoyl-3-[2-[4-(benzothiazol-2-yl)-piperidin-1-yl]-ethyl]-3-(3,4-dimethoxy-phenyl)-pyrrolidine]",2590,158,,
"COc1cc(C(=O)N2CCC(CCN3CCC(O)(c4nc5ccccc5n4Cc4ccc(F)cc4)CC3)(c3ccc(Cl)c(Cl)c3)C2)cc(OC)c1OC (centres unmarked) [Example 7, 1-(3,4,5-Trimethoxy-benzoyl)-3-[2-[4-[1-(4-fluoro-benzyl)-1 H-benzoimidazol-2-yl]-4-hydroxy-piperidin-1-yl]-ethyl]-3-(3,4-dichloro-phenyl)-pyrrolidine]",64,,,38.9
"COc1ccc(C2(CCN3CCC(O)(c4nc5ccccc5n4Cc4ccc(F)cc4)CC3)CCN(C(=O)c3cc(OC)c(OC)c(OC)c3)C2)cc1OC (centres unmarked) [Example 5, 1-(3,4,5-Trimethoxy-benzoyl)-3-[2-[4-[1-(4-fluoro-benzyl)-1 H-benzoimidazol-2-yl]-4-hydroxy-piperidin-1-yl]-ethyl]-3-(3,4-dimethoxy-phenyl)-pyrrolidine]",25,269,,
"COc1cc(CN2CCC(CCN3CCC(O)(c4nc5ccccc5n4Cc4ccc(F)cc4)CC3)(Cc3ccc(F)cc3)C2=O)cc(OC)c1OC (centres unmarked) [Example 57, 1-(3,4,5-Trimethoxy-benzyl)-3-[2-[4-[1-(4-fluoro-benzyl)-1H-benzoimidazol-2-yl]-4-hydroxy-piperidin-1-yl]-ethyl]-3-(4-fluoro-phenylmethyl)-2-oxo-pyrrolidine]",114,155,,
